Literature values as cited in patent EP1112064B1, “METHOD FOR PREPARING NOVEL FENOFIBRATE GALENIC FORMULATIONS, GALENIC FORMULATIONS OBTAINED AND APPLICATIONS” (CLL Pharma, Arenas, priority 1998, dated 2000).

Structure (SMILES): CC(C)OC(=O)C(C)(C)Oc1ccc(C(=O)c2ccc(Cl)cc2)cc1 [fénofibrate, 2-(4-(4-chlorobenzoyl)-phénoxy)-2-méthyl propionate d'isopropyle]
- résorption intestinale (administered in sunflower oil): presque complète
- demi-vie d'élimination (in vivo): ~20 heures
- dose de fénofibrate administrée résorbée (one 300 mg capsule during a meal, reaches the blood as fenofibric acid): 60%
